Assay results published in patent US20040208864A1, “Methods of improving health-related quality of life in individuals with systemic lupus erythematosus” (priority 2002, published 2004).
Entries after “also recorded” stand apart in the source; their conditions may differ.

Key:
B cells = conditions: rats; cited from earlier work
anti-dsDNA antibodies [1] = assay: Anti-dsDNA antibody levels (Farr assay), Phase II/III study; assay type: in vivo, human; conditions: for Frequency of patients with sustained reductions in anti-dsDNA antibodies compared with placebo: Phase II/III (90-05), sustained = at least 10% below baseline for at least 2/3 of values
Protocol: (§1) Two studies (Phase II/III or 90-05, and Phase III or 90-09) were conducted as described in Examples 1-2 and 12. […] Patients completed the SF-36® assessment at entry, followed by three additional time points in the trial depending on how long they participated. […] The Phase II/III trial enrolled 198 lupus patients with high-affinity antibodies who were treated for up to 18 months.
(§2) Patients selection, duration of treatment, assay type were in these studies are further detailed in Table 5. All laboratory values were determined at a central laboratory. Baseline anti-dsDNA antibody levels were calculated as the mean of the last 2 determinations prior to initial administration of the study drug. Baseline values for all other laboratory measures were determined immediately before administration of the study drug. The upper limit of normal for the anti-dsDNA antibody assay at the central laboratory was 5 IU/ml.
(§3) (Sustained reduction of 10% was based on the percent coefficient of variation of the Farr assay as reported in the assay labeling. At least ⅔ of observations were required to meet this criterion to assure the majority of values were represented for a patient.) All anti-dsDNA antibody values collected were used to determine if a patient met the criterion for sustained reduction. Anti-dsDNA antibody values subsequent to HDCC were considered treatment failures and these values were imputed to have a value equivalent to baseline.

anti-dsDNA = conditions: patients with SLE; cited from earlier work
anti-dsDNA antibodies [2] = assay: Anti-dsDNA antibody levels (Farr assay), Phase III study; assay type: in vivo, human; conditions: for Frequency of patients with sustained reductions in anti-dsDNA antibodies compared with placebo: Phase III (90-09), sustained = at least 10% below baseline for at least 2/3 of values
Protocol: as §1, §2, §3

SLE patients [3] = assay: Documented renal flares, Phase II/III study; assay type: in vivo, human
Protocol: The primary endpoint was the time to a documented renal flare, defined as reproducible increases from baseline in 24-hr proteinuria or serum creatinine >20% or at least 0.3 mg/dL, whichever was greater, accompanied by proteinuria, hematuria and/or red cell casts; or new onset or reproducible increase in hematuria accompanied by either an increase in 24-hr proteinuria or new red cell casts. Secondary outcome measures included the number of renal flares, time to institution of therapy with high dose corticosteroids (HDCC) and/or cyclophosphamide, incidence of treatment with HDCC and/or cyclophosphamide, and number of major SLE flares. HDCC was defined as an increase in oral, intravenous or intramuscular prednisone (or prednisone equivalent) greater than or equal to 15 mg per day from baseline to a dose greater than 20 mg per day for more than two days or any dose exceeding 200 mg in a single day. Topical, intra-articular, intra-lesional, or intra-ocular corticosteroid administration was excluded.
The incidences of renal flares in patients of both sustained reduction group and the other group were documented and the results are shown in Table 7 for Phase III and Table 8 for Phase II/III.

SLE patients [4] = assay: SF-36 health-related quality of life, Phase III (90-09) trial of LJP 394 vs placebo; assay type: in vivo, human; conditions: for Longitudinal differences in HRQOL (SF-36 domain scores) drug-treated vs placebo-treated: various time points, all patients
Protocol: Patients were treated with weekly doses of 100 mg of LJP 394 or with placebo. Patients were also permitted to receive certain other treatments including some but not all immunosuppressive drugs using a definition similar to Example 2. This randomized, double-blind, placebo-controlled study was conducted at more than 70 major medical centers in North America and Europe. Patients could remain in the study for up to 92 weeks.
The prospectively defined analysis groups were the intent-to-treat population and patients with impaired renal function. The intent-to-treat population was defined as patients with high-affinity antibodies to LJP 394. The patients with high-affinity antibodies to LJP 394 were those with a Kd′<0.8 mg/ml. Patients with impaired renal function were defined as having a serum creatinine level of 1.5 mg/dL to 3.5 mg/dL at baseline. In general, patients with impaired renal function are at greater risk of progressing to renal flare, kidney failure, and dialysis.
Complement changes were evaluated by determining the mean change from baseline in the complement protein C3 that indicates overall complement consumption due to active inflammation. Antibody changes were evaluated by determining the mean percent change of antibodies to dsDNA from baseline. Patients' assessments of disease activity and health-related quality of life were measured on a regular basis as well as at the time of, and 30 days following, a documented renal flare.
as §1
As described above in the detailed description of the invention, HRQOL is an assessment of a patient's sense of physical and mental well-being or how they feel. In the Phase II/III and Phase III studies, HRQOL was measured by a standard scoring instrument called the Medical Outcomes Study 36-Item Short Form (SF-36′). The SF-36® Health Survey is a standardized tool used in clinical research to measure a patient's assessment of quality of life outcomes related to disease and disease treatment. The Survey asked 36 questions related to how well a patient can perform day-to-day activities and how they feel emotionally. The answers were then reported as scores in eight domains. These domains are physical functioning, role-physical, bodily pain, general health, vitality, social functioning, role-emotional and mental health. SF-36@ was measured in both Phase III and II/III.

## abetimus sodium (sense GTGTGTGTGTGTGTGTGTGT; antisense CACACACACACACACACACA; sense: DNA, backbone not given here; antisense: DNA, backbone and methylation of C not given here; four deoxynucleotide duplexes bound to triethylene glycol valency platform) [LJP 394, tetravalent conjugate: four (CA)10.(TG)10 double-stranded 20-mer oligonucleotides on a triethylene glycol based valency platform]
B cells
  Induction of antigen-specific B-cell tolerance: induce antigen-specific B-cell tolerance
anti-dsDNA antibodies [1]; Phase II/III
  # Patients with sustained reduction: 54
  # Patients, Other (no sustained reduction): 38
anti-dsDNA antibodies [1]
  Frequency of patients with sustained reductions in anti-dsDNA antibodies compared with placebo: higher frequency; also recorded: more frequent
anti-dsDNA antibodies [1]; listed as LJP394
  Frequency of patients with sustained reductions in anti-dsDNA antibodies compared with placebo: Four times as many
anti-dsDNA antibodies [1]; Phase II/III, p<0.0001
  Change in anti-dsDNA antibodies from baseline compared with placebo: statistically significant decrease
anti-dsDNA
  Effect on anti-dsDNA titers: selectively reduces anti-dsDNA titers
anti-dsDNA antibodies [2]; Phase III
  # Patients with sustained reduction: 80
  # Patients, Other (no sustained reduction): 65
anti-dsDNA antibodies [2]
  Frequency of patients with sustained reductions in anti-dsDNA antibodies compared with placebo: higher frequency; also recorded: Four times as many; also recorded: Twice as many; also recorded: more frequent
anti-dsDNA antibodies [2]; listed as LJP394
  Frequency of patients with sustained reductions in anti-dsDNA antibodies compared with placebo: Twice as many
anti-dsDNA antibodies [2]; Phase III, p<0.0001
  Change in anti-dsDNA antibodies from baseline compared with placebo: statistically significant decrease
SLE patients [3]; Phase II/III
  # Renal flares in Other patients: 6
  # Renal flares in patients with sustained reduction: 1
SLE patients [3]; high affinity population
  Time to and number of renal flares compared with placebo: significant reduction
SLE patients [3]; intent-to-treat population, interim analysis
  Time to renal flare between treatment groups: unlikely to reach statistical significance
SLE patients [4]; after renal flare
  Mean SF-36 domain scores after renal flare compared with placebo: remained better than placebo patients; also recorded: remained better than placebo patients'
SLE patients [4]; before renal flare
  Mean SF-36 domain scores before renal flare compared with placebo: improved HRQOL scores before the renal flare compared with placebo; also recorded: higher for LJP394 treated patients in all domains
SLE patients [4]; pre vs post renal flare
  SF-36 domain score changes pre/post renal flare compared with placebo: seven of eight domains; also recorded: better HRQOL compared with Placebo patients in all domains except physical functioning
SLE patients [4]
  Longitudinal differences in HRQOL (SF-36 domain scores) drug-treated vs placebo-treated: not significantly different
SLE patients [4]; listed as Riquent™
  Longitudinal differences in HRQOL (SF-36 domain scores) drug-treated vs placebo-treated: No substantive differences
